Results published in patent US10335370B2, “Controlled release composition” (priority 2008, dated 2019).

What was measured:
Type in all cases: in vivo
[1] = tested on: H22 tumor cell; test: Tumor growth inhibition, H22 tumor in mice; details: 12 mg/kg i.p., four injections; 15th day after inoculation
Description: Cisplatin implant prepared according to Example 5 was used in this study. Ascites fluid was taken from d7 H22 passage mice under sterile conditions, and the ascites fluid was diluted with normal saline to prepare tumor cell suspension at a concentration of 1.0×10^7 cells/ml. Each mouse received a subcutaneous injection of 0.2 ml tumor cell suspension at the right armpit (number of inoculated cells: 2×10^6). The mice were randomized into 6 groups the next day after inoculation, cisplatin implant or excipient control was implanted near the tumor at the seventh day after inoculation. The positive control group received an intraperitoneal injection of cisplatin the next day after inoculation, and four injections in total at an interval of twice a week. The negative control group received an intraperitoneal injection of normal saline the next day after inoculation, and four injections in total at an interval of twice a week. The mice were sacrificed at the 15th day after inoculation, and the tumor mass were peeled and weighted. Tumor growth inhibition rate was calculated using the following equation: […]

[2] = tested on: Pancreatic cancer cell line PC3; test: Tumor size, pancreatic cancer PC3 in nude mice; details: Group B, i.v. 10 mg/kg
Description: Fluorouracil implant composition prepared according to Example 2 was tested for its efficacy on pancreatic cancer. Pancreatic cancer cell line PC3 was cultured and inoculated subcutaneously to 70 nude mice at the right armpit at the dose of 2×10^6 cells per inoculation. Tumor grew to the size of about 4 mm×4 mm×4 mm 4 weeks after the implant. 60 nude mice having tumors of similar sizes were selected and randomized into 5 groups with 12 mice in each group: Group A was administered intravenously through the angular vein with normal saline at the dose of 0.1 ml per mice; Group B was administered intravenously through the angular vein with 0.1 ml fluorouracil solution in normal saline at the dose of 10 mg/kg; Group C was implanted with blank matrix; Group D was implanted with fluorouracil implant composition into the pancreatic tumor mass at the dose of 4 mg/kg; and Group E was implanted with fluorouracil implant composition into the pancreatic tumor mass at the dose of 1 mg/kg. The size of the tumor mass was measured before and after treatment.

[3] = tested on: SGC-7901 tumor; test: Tumor growth inhibition, SGC-7901 tumor in nude mice; details: 1.6 mg ip, four injections; 21st day after inoculation
Description: Fluorouracil implant prepared according to Example 2 were used in this study. SGC-7901 tumor tissues at vigorous growth stage were obtained and cut into pieces of about 1.5 mm^3. The tumor tissue pieces were inoculated subcutaneously to the right armpit of nude mice, under sterile conditions. The mice were randomized into 6 groups at the sixth day after inoculation. Three groups were treated with different doses of fluorouracil implant prepared according to Example 2. Another group was treated with excipient at the sixth day after noculation. The fluorouracil implant or excipient was implanted subcutaneously near the tumor. The positive group received four intraperitoneal injections of fluorouracil in total at an interval of twice a week. The negative control group received four intraperitoneal injections of normal saline in total at an interval of twice a week. The mice were sacrificed at the 21st day after inoculation, and the tumor mass were peeled and weighed. The tumor growth inhibition rate was calculated using the following equation: […]

N.N.[Cl][Pt][Cl] [cisplatin]
Tumor growth inhibition rate (%) [1]: 19.68%
Tumor weight X ± SD [1]: 2.98 ± 1.14 g

O=c1[nH]cc(F)c(=O)[nH]1 [fluorouracil]
tumor size ([2]; 3rd day): 72.3 mm^3
tumor size ([2]; 6th day): 96.62 ± 20.5 mm^3
tumor size ([2]; 10th day): 107.3 ± 20.9 mm^3
tumor size ([2]; 14th day): 121.6 ± 14.3 mm^3
tumor size ([2]; Before treatment): 61.5 ± 8.7 mm^3
Tumor growth inhibition rate (%) [3]: 75.76%
Tumor weight X ± SD [3]: 0.71 ± 0.42 g
